Measurements from patent publication EP0047459A2, “Fluorescent reagent and immunofluorescent determination method” (INTERNATIONAL DIAGNOSTIC TECHNOLOGY, INC., priority 1980, dated 1982).
Where two headings read alike, the source gives them in different places.

Assay: Comparison of water solubilities of haptens, modified haptens and gentamicin reaction products
Format: physicochemical
Description: In der Tabelle III werden die Wasserlöslichkeiten der Haptene Phenobarbital und Diphenylhydantoin in unveränderter Form, in modifizierter Form (carboxyliert bzw. aminiert) und in der sogenannten konjugierten Form, nämlich als Umsetzungsprodukt mit Gentamicin gegenübergestellt. Hieraus ergibt sich, daß die Haptene in unveränderter und in modifizierter Form hydrophob sind (Die Unlöslichkeit in Wasser ist ein Maß für die Hydrophobie einer Verbindung). Mit steigender Unlöslichkeit der Verbindungen in Wasser steigt die Hydrophobie und die Wahrscheinlichkeit, daß sie an die Oberfläche gebunden werden, wobei durch die unspezifischen Bindungen große Ungenauigkeiten in der Immunofluoreszenz-Bestimmungsmethode verursacht werden. Wie aus der Tabelle III weiterhin ersichtlich, erhält man ein lösliches, d.h. hydrophiles Produkt, wenn man ein hydrophobes Hapten wie Phenobarbital oder Diphenylhydantoin mit einer hydrophilen Verbindung wie Gentamicin verbindet. Derartige Produkte werden nicht als solche an die feste Oberfläche gebunden.

| Structure (SMILES) | Wasserlöslichkeiten | Wasserlöslichkeiten (in water, insolubility is taken as a measure of hydrophobicity) |
| --- | --- | --- |
| O=C1NC(=O)C(c2ccccc2)(c2ccccc2)N1 [Diphenyl-hydantoin, Diphenylhydantoin] | unlöslich | – |
| CCC1(c2ccccc2)C(=O)NC(=O)NC1=O [Phenobar-bital, Phenobarbital] | – | unlöslich |
